Where a name gives a salt, the structure may show the parent alone.
Assays:
[1] = target: T1, LSD1 and EOMES (Mus musculus, UniProt Q6ZQ88); experiment: Immunofluorescence co-expression and co-localization of LSD1 and EOMES in CD8+ T-cells; format: in vivo
T1 construct: CD8^+ T-cells isolated from the 4T1 metastatic xenograft mouse model; endogenous in cells; host or cells: CD8+ T-cells isolated from the tumour micro-environment of treated 4T1 mice
Protocol: FIG. 6 is a graphical and photographic representation depicting nuclear LSD1 complexes with EOMES in exhausted T-cell signatures. A. Nanostring transcript analysis was performed on isolated CD8^+ T-cells isolated from a 4T1 metastatic cancer mouse model treated with either Group A=Control, Group C: PD1 (10 mg/kg), Group D: Phenelzine (40 mg/kg), or Group F: PD1+Phenelzine. […] B. Immunofluorescence microscopy was performed on CD8^+ T-cells fixed and probed with primary anti-LSD1, anti-EOMES and anti-CD8 antibodies and DAPI. Representative images for each dataset are shown. […] C. […] Plot-profiles were plotted with the use of ImageJ software measuring a series of fluorescent intensities along a line spanning the nucleus. The pattern of the two plots can give an insight into the nature of the relationship between the two fluorochromes. Imagej software with automatic thresholding and manual selection ? for nucleus of cells was used to calculate the Pearson's co ? (PCC) for each pair of antibodies. The PCC Values range from −1=inverse of co-localization, 0=no co-localization, +1=perfect co-localization.
To unravel this role, the present inventors examined the co-expression of LSD1 and EOMES (an exhaustion marker) in CD8^+ T-cells isolated from the 4T1 metastatic xenograft mouse model.
This negative co-localization was unaffected by treatment with PD1 or LSD1 inhibitors (FIG. 7).
A total of 2×10^5 cells were injected per mouse into mammary gland in 50 μL of phosphate buffered saline (PBS). Treatments were started on mice after 15 days post-inoculation of 4T1 cells. […] Tumors were measured using calipers and the tumor volumes (mm3) were calculated using the formula (length×width2)/2. ? arvested cells from primary tumors where then cytospun ? -treated with poly-1-lysine and fixed then stored in PBS for IFA Microscopy Analysis. […] Digital images were analysed using ImageJ software (ImageJ, NIH, Bethesda, Md., USA) to determine the either the Total Nuclear Fluorescent Intensity (TNFI), the Total Cytoplasmic Fluorescent Intensity (TCFI) or total Fluorescent Intensity (TFI).

[2] = tested on: CD4+ and CD8+ T-cells; experiment: Flow cytometry, intracellular staining of IFN-γ, IL-2 and TNF-α after PMA/ionomycin; format: in vivo, mouse
Protocol: FIG. 5 is a graphical representation showing that dual epigenetic-immunotherapy re-educates and re-programs the T-cell repertoire. A. Cells stimulated with PMA/ionomycin for 4 hours in the presence of Brefeldin A. Cells were surfaced stained with CD45, CD3, CD4, CD8, CD44, CD62L (for naïve, effector and central memory), CD25 and FoxP3 (for Tregs) and analyzed via Flow cytometry. A Mann-Whitney non-parametric t-test was used to compare control vs other groups (*p<0.05, n=2-5). […] Representative images for each dataset are shown. TNFI values for EOMES, TBET and Ki67 measured using Image) to select the nucleus minus background. Graphs represent the % change of expression relative to control group for CD8^+ T-cells. (n>20 individual cells, Group A=Control, Group C: PD1 (10 mg/kg), Group D: Phenelzine (40 mg/kg), Group F: PD1+Phenelzine). C. Cells stimulated with PMA/ionomycin for 4 hours in the presence of Brefeldin A. Cell were surfaced stained with CD45, CD3, CD4, CD8 and intracellular staining of IFN-γ, IL-2 and TNF-α in the presence of Brefeldin A and analyzed via flow cytometry. A Mann-Whitney non-parametric t-test was used to compare control vs other groups (*p<0.05, **p<0.008; n=2-5). […] Representative images for each dataset are shown. TNFI values for TNFα and IFNγ measured using ImageJ to select the nucleus minus background. Graphs represent the % change of expression relative to control group for CD8^+ T-cells. […]
Cells were surfaced stained with CD49b, F4/80 and intracellular stained for IFN-γ, TNF-α and IL-10. To label NK cells and the macrophages (M1/M2) in the tumor microenvironment or a suite of antibodies to label CD8^+ T-Cells (Cells were surfaced stained with CD45, CD3, CD4, CD8, CD44, CD62L (for naïve, effector and central memory). Cells were finally resuspended in PBS 2% FBS and flow cytometry performed on FACS Fortessa (BD) or FACS LSRII (BD). Analysis of data was done using FlowJo® analysis software and % cell populations calculated from the raw data. A Mann-Whitney non-parametric t-test was used to compare control vs other groups.

EOMES expression ([1]; CD8+ T-cells, nuclear TNFI): marked inhibition | LSD1 expression ([1]; CD8+ T-cells, nuclear TNFI): marked inhibition | LSD1/EOMES nuclear protein complex (co-localization, plot-profiles and PCC) ([1]; nucleus of exhausted CD8+ T-cells): markedly inhibited
SMILES: NNCCc1ccccc1 (racemic) [phenelzine sulfate, (±)-2-phenylethylhydrazine]
IL-2 production by CD4+ T-cells ([2]; CD4+ T-cells): much more efficient | pro-inflammatory/Th1 response (IFN-γ, IL-2 and TNF-α) ([2]; CD4+ and CD8+ T-cells, compared to the control): better pro-inflammatory/Th1 response | production of these cytokines (IFN-γ, IL-2, TNF-α) ([2]; as compared to the control): seems to increase

Source: patent US20210186905A1, “ENHANCING T-CELL FUNCTION AND TREATING A T-CELL DYSFUNCTIONAL DISORDER WITH A COMBINATION OF AN LSD INHIBITOR AND A PD-1 BINDING ANTAGONIST” (EpiAxis Therapeutic Pty Ltd, priority 2017, published 2021)
